The values that follow come from patent US20020137706A1, “Regulated growth factor delivery for engineered peripheral nerve” (priority 2000, published 2002).

In one data set the test system is PC-12 cells. Briefly: Bioactivity assay of released NGF, PC-12 differentiation. Particulars: 4 days culture in supernatant of MurA-induced transfected hDFBs; p≦0.002. Format: cell-based. As for the experimental part: PC-12 cells were obtained from ATCC (CRL-1721). PC-12 cells were maintained in F12k supplemented with 15% horse serum (Sigma, St. Louis, Mo.), 2.5% FBS, and penicillin-streptomycin-glutamine mixture (Gibco). For the NGF bioactivity assay, PC-12 cells were seeded at 10^2 cells/750 μL in 12-well plates.
NGF Bioactivity. Bioactivity assay of released NGF was assessed using PC-12 cells with their differentiation as the endpoint. PC-12 cells were incubated with PC.12 culture media (control) or media supernatants from transfected hDFBs in the presence of MurA (i.e., media with released NGF). Briefly, hDFBs were cultured and exposed to 3 μM Muristerone for 3 days in 12-well plates.
The media, theoretically with containing NGF released from transfected hDFBs, was then removed and used to culture PC-12 cells in 12-well plates. After 4 days, random images were digitized of each well and the number of differentiated and undifferentiated Data are reported as fraction of PC-12 cells that were differentiated.

The subject of data set [1] is right sciatic nerve defect. Particulars: rat, in vivo.
Description: Surgical Technique. Twenty-one Sprague Dawley (250 gms) rats with a right sciatic nerve defect were implanted with the 12 mm PLLA conduits. […] Briefly the animals were anesthetized and maintained by a 0.4 cc intramuscular injection of a premixed solution containing 64 mg/ml ketamine HCL (Keta-Sthetic™ Boehringer Ingelheim, St Joseph, Mo.), 3.6 mg/ml xylazine (Rompun™ Miles Inc., Shawnee Mission, Kans.), and 0.07 mg/ml atropine sulfate (Elkins-Sinn Inc., Cherry Hill, N.J.). The skin from the clipped lateral thigh was scrubbed in a routine fashion with antiseptic solution. The incision extended from the greater trochanter to the midcalf distally. The sciatic and posterior tibial nerves were exposed by a muscle splitting incision. […]
The medical and lateral gastrocnemius muscle was harvested at 6 and 16 weeks and weighed in order to assess nerve reinnervation. […] The difference in weight of the containers before and after muscle placement determined the muscle weight.
Histological Assessment. […] Images of the histological sections were digitized using a CCD camera and subsequently analyzed using standard image processing and analysis techniques. […] The number of axons were counted to give the number of axons/mm^2. The area of each axon was determined, summed together, and expressed as area axons/image area to give the nerve fiber density. […]

Take “NGF secreted from hDFBs: nerve growth factor in media supernatants from transfected hDFBs in the presence of MurA”: in the data set on PC-12 cells, the “PC-12 differentiation versus media alone” value is given as “markedly higher levels”.

On to poly (L-Lactic acid) [PLLA conduits], for which, in data set [1], the inflammatory reaction result is “No severe inflammatory reaction could be identified” and the neuromas entry is “no neuromas were apparent clinically”.
